Data from patent US20240400555A1 (Initial Therapeutics, Inc., priority 2023, published 2024).
Like-named read-outs stand apart in the source and are kept apart here.

System: MV-4-11 cells
Test: Cell Viability Assay in MV-4-11 Cells
Assay type: cell-based
Conditions: Homo sapiens, MV4-11, 72 h
Procedure, shortened: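 Luminescent ATP read-out (CellTiter-Glo) after 72 h compound treatment of MV-4-11 leukaemia cells (7,000 per well, IMDM plus 10% FBS). Values expressed relative to DMSO control and derived by four-parameter non-linear regression.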

[1] = MV-4-11 cells, 72 h, Cell-Titer Glo, read-out: IC50

Compound	IC50 [1]	IC50
Cc1csc2ccnc(N(C(=O)c3ccc(-c4nnn(C)c4C)cc3F)[C@@H]3CCCNC3)c12 [Example 782, (R)-4-(1,5-dimethyl-1H-1,2,3-triazol-4-yl)-2-fluoro-N-(3-methylthieno[3,2-c]pyridin-4-yl)-N-(piperidin-3-yl)benzamide]	120 nM	–
Cc1nnc(-c2ccc(C(=O)N(c3nccc4cc(F)cc(C)c34)[C@@H]3CCCNC3)nc2)s1 [Example 784, (R)—N-(6-fluoro-8-methylisoquinolin-1-yl)-5-(5-methyl-1,3,4-thiadiazol-2-yl)-N-(piperidin-3-yl)picolinamide]	290 nM	–
Cc1cc(F)cc2ccnc(N(C(=O)c3ccc(-c4cn(C)nn4)cn3)[C@@H]3CCCNC3)c12 [Example 785, (R)—N-(6-fluoro-8-methylisoquinolin-1-yl)-5-(1-methyl-1H-1,2,3-triazol-4-yl)-N-(piperidin-3-yl)picolinamide]	230 nM	–
Cc1cc(C2CCN(C(=O)N(c3nccc4scc(C)c34)[C@@H]3CCCNC3)CC2)on1 [Example 796, (R)-4-(3-methylisoxazol-5-yl)-N-(3-methylthieno[3,2-c]pyridin-4-yl)-N-(piperidin-3-yl)piperidine-1-carboxamide]	510 nM	–
Cc1cc(-c2ccc(C(=O)N(c3nccc4scc(C)c34)[C@@H]3CCCNC3)nc2)on1 [Example 797, (R)-5-(3-methylisoxazol-5-yl)-N-(3-methylthieno[3,2-c]pyridin-4-yl)-N-(piperidin-3-yl)picolinamide]	170 nM	–
Cc1nnc(-c2ccc(C(=O)N(c3nccc4scc(C)c34)[C@@H]3CCCNC3)cc2)s1 [Example 798, (R)-4-(5-methyl-1,3,4-thiadiazol-2-yl)-N-(3-methylthieno[3,2-c]pyridin-4-yl)-N-(piperidin-3-yl)benzamide]	82 nM	–
Cc1csc2ccnc(N(C(=O)c3ccc(-c4cn(C)nn4)cc3)[C@@H]3CCCNC3)c12 [Example 799, (R)-4-(1-methyl-1H-1,2,3-triazol-4-yl)-N-(3-methylthieno[3,2-c]pyridin-4-yl)-N-(piperidin-3-yl)benzamide]	79 nM	–
Cc1nnc(-c2ccc(C(=O)N(c3nccc4cc(Cl)cc(C)c34)[C@@H]3CCCNC3)nc2)s1 [Example 801, (R)—N-(6-chloro-8-methylisoquinolin-1-yl)-5-(5-methyl-1,3,4-thiadiazol-2-yl)-N-(piperidin-3-yl)picolinamide]	140 nM	–
Cc1cc(Cl)cc2ccnc(N(C(=O)c3ccc(-c4cn(C)nn4)cc3)[C@@H]3CCCNC3)c12 [Example 802, (R)—N-(6-chloro-8-methylisoquinolin-1-yl)-4-(1-methyl-1H-1,2,3-triazol-4-yl)-N-(piperidin-3-yl)benzamide]	38 nM	–
Cn1cc(-c2ccc(C(=O)N(c3nccc4cc(F)ccc34)[C@@H]3CCCNC3)nc2)nn1 [Example 803, (R)—N-(6-fluoroisoquinolin-1-yl)-5-(1-methyl-1H-1,2,3-triazol-4-yl)-N-(piperidin-3-yl)picolinamide]	860 nM	–
Cn1cc(-c2ccc(C(=O)N(c3nccc4cc(F)ccc34)[C@@H]3CCCNC3)cc2)nn1 [Example 805, (R)—N-(6-fluoroisoquinolin-1-yl)-4-(1-methyl-1H-1,2,3-triazol-4-yl)-N-(piperidin-3-yl)benzamide]	820 nM	–
O=C(c1ccc(-c2cccnn2)cn1)N(c1nccc2cc(Cl)ccc12)[C@@H]1CCCNC1 [Example 806, N-(6-chloro-1-isoquinolyl)-N-[(3R)-3-piperidyl]-5-pyridazin-3-yl-pyridine-2-carboxamide]	680 nM	–
Cn1cc(-c2ccc(C(=O)N(c3nccc4cc(Cl)ccc34)[C@@H]3CCCNC3)cc2)nn1 [Example 808, (R)—N-(6-chloroisoquinolin-1-yl)-4-(1-methyl-1H-1,2,3-triazol-4-yl)-N-(piperidin-3-yl)benzamide]	420 nM	–
Cc1nnc(-c2ccc(C(=O)N(c3nccc4scc(C)c34)[C@@H]3CCCNC3)nc2)s1 [Example 810, (R)-5-(5-methyl-1,3,4-thiadiazol-2-yl)-N-(3-methylthieno[3,2-c]pyridin-4-yl)-N-(piperidin-3-yl)picolinamide]	170 nM	–
Cc1csc2ccnc(N(C(=O)c3ccc(-c4cn(C)nn4)cn3)[C@@H]3CCCNC3)c12 [Example 811, (R)-5-(1-methyl-1H-1,2,3-triazol-4-yl)-N-(3-methylthieno[3,2-c]pyridin-4-yl)-N-(piperidin-3-yl)picolinamide]	120 nM	–
Cc1cc(Cl)cc2ccnc(N(C(=O)c3ccc(-c4cn(C)nn4)cn3)[C@@H]3CCCNC3)c12 [Example 812, (R)—N-(6-chloro-8-methylisoquinolin-1-yl)-5-(1-methyl-1H-1,2,3-triazol-4-yl)-N-(piperidin-3-yl)picolinamide]	51 nM	–
Cn1cc(-c2ccc(C(=O)N(c3nccc4sc(C(=O)Nc5ccncc5)cc34)[C@@H]3CCCNC3)c(F)c2)nn1 [Example 813, (R)-4-(2-fluoro-4-(1-methyl-1H-1,2,3-triazol-4-yl)-N-(piperidin-3-yl)benzamido)-N-(pyridin-4-yl)thieno[3,2-c]pyridine-2-carboxamide]	–	550 nM

The next lines start with results.

IC50 [1]	Compound	IC50
180 nM	Cc1nnc(-c2ccc(C(=O)N(c3nccc4cccc(C)c34)[C@@H]3CCCNC3)nc2)s1 [Example 783, (R)-5-(5-methyl-1,3,4-thiadiazol-2-yl)-N-(8-methylisoquinolin-1-yl)-N-(piperidin-3-yl)picolinamide]	–
120 nM	Cc1cccc2ccnc(N(C(=O)c3ccc(Nc4nccc(NCc5ccccc5)n4)cc3F)[C@@H]3CCCNC3)c12 [Example 786, (R)-4-((4-(benzylamino)pyrimidin-2-yl)amino)-2-fluoro-N-(8-methylisoquinolin-1-yl)-N-(piperidin-3-yl) benzamide]	–
3000 nM	O=C(c1ccc(Nc2ncc(F)cn2)cc1F)N(c1nccc2cc(F)ccc12)[C@@H]1CCCNC1 [Example 787, (R)-2-fluoro-N-(6-fluoroisoquinolin-1-yl)-4-((5-fluoropyrimidin-2-yl)amino)-N-(piperidin-3-yl)benzamide]	–
970 nM	Cc1nnc(-c2ccc(C(=O)N(c3nccc4cc(Cl)ccc34)[C@@H]3CCCNC3)c(F)c2)o1 [Example 788, (R)—N-(6-chloroisoquinolin-1-yl)-2-fluoro-4-(5-methyl-1,3,4-oxadiazol-2-yl)-N-(piperidin-3-yl)benzamide]	–
97 nM	Cc1cccc2ccnc(N(C(=O)c3ccc(-c4nnc(C5CC5)o4)cc3)[C@@H]3CCCNC3)c12 [Example 789, (R)-4-(5-cyclopropyl-1,3,4-oxadiazol-2-yl)-N-(8-methylisoquinolin-1-yl)-N-(piperidin-3-yl)benzamide]	–
240 nM	Cc1cccc2ccnc(N(C(=O)c3ccc(-c4nnc(C5CC5)s4)cc3)[C@@H]3CCCNC3)c12 [Example 790, (R)-4-(5-cyclopropyl-1,3,4-thiadiazol-2-yl)-N-(8-methylisoquinolin-1-yl)-N-(piperidin-3-yl) benzamide]	–
140 nM	CCc1nnc(-c2ccc(C(=O)N(c3nccc4cccc(C)c34)[C@@H]3CCCNC3)cc2)s1 [Example 791, (R)-4-(5-ethyl-1,3,4-thiadiazol-2-yl)-N-(8-methylisoquinolin-1-yl)-N-(piperidin-3-yl) benzamide]	–
160 nM	Cc1nnc(-c2ccc(C(=O)N(c3nccc4cccc(C)c34)[C@@H]3CCCNC3)cc2)s1 [Example 792, (R)-4-(5-methyl-1,3,4-thiadiazol-2-yl)-N-(8-methylisoquinolin-1-yl)-N-(piperidin-3-yl) benzamide]	–
200 nM	Cc1cc(Cl)cc2ccnc(N(C(=O)c3ccc(Nc4ncccn4)cc3F)[C@@H]3CCCNC3)c12 [Example 793, N-(6-chloro-8-methyl-1-isoquinolyl)-2-fluoro-N-[(3R)-3-piperidyl]-4-(pyrimidin-2-ylamino)benzamide]	–
1300 nM	O=C(c1ccc(Nc2ncccn2)cc1F)N(c1nccc2cc(Cl)ccc12)[C@@H]1CCCNC1 [Example 794, (R)—N-(6-chloroisoquinolin-1-yl)-2-fluoro-N-(piperidin-3-yl)-4-(pyrimidin-2-ylamino)benzamide]	–
130 nM	Cn1cc(-c2ccc(C(=O)N(c3nccc4scc(Cl)c34)[C@@H]3CCCNC3)c(F)c2)nn1 [Example 795, (R)—N-(3-chlorothieno[3,2-c]pyridin-4-yl)-2-fluoro-4-(1-methyl-1H-1,2,3-triazol-4-yl)-N-(piperidin-3-yl)benzamide]	–
170 nM	Cn1cc(-c2ccc(C(=O)N(c3nccc4cccc(Cl)c34)[C@@H]3CCCNC3)cc2)nn1 [Example 800, (R)—N-(8-chloroisoquinolin-1-yl)-4-(1-methyl-1H-1,2,3-triazol-4-yl)-N-(piperidin-3-yl)benzamide]	–
980 nM	Cc1nnc(-c2ccc(C(=O)N(c3nccc4cc(F)ccc34)[C@@H]3CCCNC3)cc2)s1 [Example 804, (R)—N-(6-fluoroisoquinolin-1-yl)-4-(5-methyl-1,3,4-thiadiazol-2-yl)-N-(piperidin-3-yl)benzamide]	–
200 nM	Cc1cccc2ccnc(N(C(=O)c3ccc(-c4cn(C)nn4)cn3)[C@@H]3CCCNC3)c12 [Example 809, (R)-5-(1-methyl-1H-1,2,3-triazol-4-yl)-N-(8-methylisoquinolin-1-yl)-N-(piperidin-3-yl)picolinamide]	–
430 nM	Cc1cc(Cl)cc2ccnc(N(C(=O)c3ccc(-c4cnn(C)c4C)cc3F)[C@@H]3CCCNC3)c12 [Example 814, (R)—N-(6-chloro-8-methylisoquinolin-1-yl)-4-(1,5-dimethyl-1H-pyrazol-4-yl)-2-fluoro-N-(piperidin-3-yl)benzamide]	–
69 nM	Cc1nnc(-c2ccc(C(=O)N(c3nccc4cc(Cl)cc(C)c34)[C@@H]3CCCNC3)c(F)c2)s1 [Example 815, (R)—N-(6-chloro-8-methylisoquinolin-1-yl)-2-fluoro-4-(5-methyl-1,3,4-thiadiazol-2-yl)-N-(piperidin-3-yl)benzamide]	–
